Target: T1, Farnesyltransferase (Saccharomyces cerevisiae S288c, UniProt P22007+P29703)
T1 sequence (P29703 whole entry): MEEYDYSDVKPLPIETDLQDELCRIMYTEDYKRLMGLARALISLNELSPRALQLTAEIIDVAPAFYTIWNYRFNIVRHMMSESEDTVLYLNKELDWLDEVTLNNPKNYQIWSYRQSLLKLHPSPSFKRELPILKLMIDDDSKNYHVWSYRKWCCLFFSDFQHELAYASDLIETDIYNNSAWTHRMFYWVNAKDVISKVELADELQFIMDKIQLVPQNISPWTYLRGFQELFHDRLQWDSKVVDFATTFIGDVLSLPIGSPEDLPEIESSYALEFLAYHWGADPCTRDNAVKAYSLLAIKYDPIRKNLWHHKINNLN
T1 sequence (P22007 whole entry): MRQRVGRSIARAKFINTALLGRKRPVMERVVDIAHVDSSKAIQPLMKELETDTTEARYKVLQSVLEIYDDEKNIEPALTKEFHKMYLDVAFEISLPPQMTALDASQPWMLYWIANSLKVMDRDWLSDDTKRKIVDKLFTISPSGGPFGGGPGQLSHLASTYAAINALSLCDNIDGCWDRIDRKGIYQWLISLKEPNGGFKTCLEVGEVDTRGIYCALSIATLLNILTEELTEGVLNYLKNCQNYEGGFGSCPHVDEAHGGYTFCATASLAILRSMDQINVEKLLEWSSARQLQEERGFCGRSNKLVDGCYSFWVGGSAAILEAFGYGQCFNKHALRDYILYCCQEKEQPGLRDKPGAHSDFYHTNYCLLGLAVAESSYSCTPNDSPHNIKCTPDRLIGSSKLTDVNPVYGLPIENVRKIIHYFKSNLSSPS
Test: Inhibition of yeast Farnesyl transferase
Format: protein-complex assay

SMILES	IC50 [nM]	Ki [nM]	Kd [nM]
C/C(=C\COP(=O)(O)OP(=O)(O)O)CC/C=C(\C)CNC(=O)c1cccc(C(=O)c2ccccc2)c1	3700	700	–
C/C(=C\COP(=O)(O)OP(=O)(O)O)CC/C=C(\C)CN1C(=O)c2ccccc2C1=O	10000	–	–
C/C(=C\COP(=O)(O)OP(=O)(O)O)CNC(=O)c1cccc(C(=O)c2ccccc2)c1	37000	6000	–
CC(C)=CCC/C(C)=C/CC/C(C)=C/CO[P@@](=O)(O)OP(=O)(O)O [FARNESYL DIPHOSPHATE]	–	–	75

Next, values leading:

IC50 [nM]	Ki [nM]	Kd [nM]	SMILES
2300	380	–	C/C(=C\COP(=O)(O)OP(=O)(O)O)CC/C=C(\C)COC(=O)c1cccc(C(=O)c2ccccc2)c1
2000	960	–	C/C(=C\COP(=O)(O)OP(=O)(O)O)COC(=O)c1cccc(C(=O)c2ccccc2)c1

From ChEMBL document CHEMBL1130507, “Synthesis and evaluation of benzophenone-based photoaffinity labeling analogs of prenyl pyrophosphates containing stable amide linkages” (Bioorg Med Chem Lett, 1997)
